# Assay results: patent EP4520824A1, “DEO[…] GENERATES FL[…] USES THEREOF” (Ústav organické chemie a biochemie Akademie ved Ceske …, priority 2023, dated 2025)
# Test system: chromogenic deoxyribozyme, optimized variant (Chro 4, SEQ ID NO: 39)
# Assay: Self-phosphorylation kinetics of chromogenic deoxyribozyme with 4-NPP (ligation assay)
# Type: biochemical
# Settings: self-phosphorylation with 4-NPP as substrate; 200 mM KCl, 1 mM ZnCl2, 50 mM HEPES pH 7.4
compound,measurement,value
"O=[N+]([O-])c1ccc(OP(=O)(O)O)cc1 [4-NPP, 4-nitrophenyl phosphate]",catalytic efficiency,~10^3 M^-1 min^-1
